Test results: US11234976B2, “Methods of using pyruvate kinase activators” (Agios Pharmaceuticals, Inc., priority 2015, dated 2022)
Where two headings read alike, the source gives them in different places.

Experiments:
[1] = tested on: recombinantly expressed PKR mutant proteins; assay: Activation of recombinantly expressed PKR mutant proteins; assay type: biochemical
PKD red cells = assay: Ex-vivo treatment of PKD red cells; assay type: cell-based, human; conditions: PKD red cells treated ex-vivo
PKR = PKR (Mus musculus, UniProt P53657)
Sequence of PKR (P53657 whole entry): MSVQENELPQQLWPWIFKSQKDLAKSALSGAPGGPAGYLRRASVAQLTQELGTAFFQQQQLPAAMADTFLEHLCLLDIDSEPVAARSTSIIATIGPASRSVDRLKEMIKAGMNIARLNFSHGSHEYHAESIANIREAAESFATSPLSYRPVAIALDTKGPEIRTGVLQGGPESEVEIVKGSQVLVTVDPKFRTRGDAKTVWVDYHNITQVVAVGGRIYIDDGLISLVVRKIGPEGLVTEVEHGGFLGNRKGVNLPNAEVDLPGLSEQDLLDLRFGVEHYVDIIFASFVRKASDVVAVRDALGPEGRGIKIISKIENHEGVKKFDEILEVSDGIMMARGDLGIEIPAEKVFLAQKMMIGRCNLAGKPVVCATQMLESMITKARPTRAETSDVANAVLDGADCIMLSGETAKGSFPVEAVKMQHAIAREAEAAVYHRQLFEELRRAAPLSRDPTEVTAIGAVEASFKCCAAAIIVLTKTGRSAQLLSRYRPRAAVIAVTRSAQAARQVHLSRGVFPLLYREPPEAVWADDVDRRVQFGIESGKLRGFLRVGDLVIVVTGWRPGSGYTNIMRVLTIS
Text: Dose levels tested were 1 mpk, 10 mpk, 50 mpk, and 150 mpk. Following the last dose, mice were bled to evaluate drug exposure and pharmacodynamic markers including 2,3-DPG and ATP levels, and PKR activity.

Drug exposure in mice = assay type: in vivo, C57/BL6 mice; conditions: oral gavage, 1-150 mpk, single dose and multiple dose (13 doses, BID)
Text: Dose levels tested were 1 mpk, 10 mpk, 50 mpk, and 150 mpk. Following the last dose, mice were bled to evaluate drug exposure and pharmacodynamic markers including 2,3-DPG and ATP levels, and PKR activity. […]. […]

PKR reaction = assay: PKR flux in whole blood from treated mice ([U-13C6]-glucose); assay type: in vivo, C57BL/6 mice; conditions: 100 mpk BID, 13 doses, oral gavage; kinetic flux model
Experimental: Whole blood was incubated with [U-^13C6]-glucose at 37° C. and the metabolite pool sizes and rate of ^13C label incorporation into glycolytic intermediates were assessed. The data were subsequently analyzed using a mathematical kinetic flux model to quantify the overall change in carbon flow through the PKR reaction.

[2] = SAD study pharmacokinetics in healthy subjects; assay type: in vivo, human; conditions: for half-life: oral
Experimental: . Key exclusion criteria included glucose 6-phosphate dehydrogenase deficiency, blood donation, blood loss of greater than 500 mL, or transfusion of blood or plasma within three months of screening.

PK-R [3] = tested on: PK-R
Experimental: (§1) Key exclusion criteria included glucose 6-phosphate dehydrogenase deficiency, blood donation, blood loss of greater than 500 mL, or transfusion of blood or plasma within three months of screening.

[4] = SAD study safety and tolerability; assay type: in vivo, human
Experimental: as §1

[5] = biological target: cytochrome P450 3A4 (CYP3A4) (Homo sapiens, UniProt P08684); assay: Pre-clinical CYP3A4 induction / metabolism; assay type: in vitro ADME
Sequence of cytochrome P450 3A4 (CYP3A4) (P08684 whole entry): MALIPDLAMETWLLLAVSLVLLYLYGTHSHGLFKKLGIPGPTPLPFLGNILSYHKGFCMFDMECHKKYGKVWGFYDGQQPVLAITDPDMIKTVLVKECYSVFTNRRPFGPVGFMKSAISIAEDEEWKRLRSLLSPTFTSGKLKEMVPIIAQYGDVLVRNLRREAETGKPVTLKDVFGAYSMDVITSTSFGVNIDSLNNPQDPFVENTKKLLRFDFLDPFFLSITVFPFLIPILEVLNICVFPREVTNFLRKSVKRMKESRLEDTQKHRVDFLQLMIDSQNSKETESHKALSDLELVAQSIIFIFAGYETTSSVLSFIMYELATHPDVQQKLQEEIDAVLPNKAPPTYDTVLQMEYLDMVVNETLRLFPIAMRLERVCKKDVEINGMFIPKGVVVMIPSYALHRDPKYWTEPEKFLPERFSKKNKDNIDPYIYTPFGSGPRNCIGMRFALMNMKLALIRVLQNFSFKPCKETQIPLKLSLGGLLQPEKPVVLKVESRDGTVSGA

[6] = in vivo
Text: (§2) Adverse events (AEs), laboratory parameters, ECGs, and vital signs were monitored.

[7] = MAD study safety and tolerability; conditions: doses between 360 and 700 not explored
Text: as §2

[8] = MAD study pharmacokinetics in healthy subjects
PK-R [9] = assay: MAD study pharmacodynamics (blood 2,3-DPG and ATP)
[10] = single oral dose, 1, 10, 50, 150 mpk

## O=C(c1ccc(NS(=O)(=O)c2cccc3cccnc23)cc1)N1CCN(CC2CC2)CC1 [Compound 1, N-(4-(4-(cyclopropylmethyl)piperazine-1-carbonyl)phenyl)quinoline-8-sulfonamide]
[1]; pre-clinical studies
  activity of mutated PK-R enzymes: increases the activity
[1]; recombinantly expressed PKR mutants associated with PKD
  protein stability of PKR mutant proteins: enhances the protein stability
PKD red cells
  2,3-DPG levels: reduced 2,3-DPG levels
  ATP levels: increased ATP levels
  PKR enzyme activity levels: increased PKR enzyme activity levels
PKR; multiple doses (13 doses, BID), 1, 10, 50, 150 mpk
  ATP levels in whole blood: robustly increased in a dose-dependent manner
PKR; [10]
  2,3-DPG levels in whole blood: reduction in 2,3-DPG levels
  ATP levels in whole blood: no significant changes
Drug exposure in mice
  drug exposure: dose-proportional increase in exposure
PKR reaction
  glycolytic flux through the PKR reaction: significantly increased
[2]; both sexes, human, plasma, concentrations measured for 72 hours, read-out: mean apparent terminal half-life (t1/2)
  half-life: 17.5 to 20.5 h
[2]; both sexes, human, plasma, concentrations measured for 120 hours, read-out: mean apparent terminal half-life (t1/2)
  half-life: 50 to 80 h
[2]; both sexes, human, plasma, first 12 hours following dosing, read-out: apparent half-life of rapid distribution or elimination phase
  half-life: 2 to 4 h
[2]; both sexes, human, plasma, single oral dose, SAD cohorts, read-out: median Tmax
  Tmax: 0.75 to 4 h
[2]; fed vs fasted, preliminary results
  effect of food on exposure: minimal effect
[2]; single doses, SAD cohorts 1-6
  exposure (mean plasma Cmax, AUC0-12 hr and AUC0-72 hr): increased in a dose-proportional manner
PK-R [3]; after a single dose, SAD study
  blood ATP levels: minimal increases
PK-R [3]; after single dose
  time for 2,3-DPG to return to placebo levels: 72 h
[4]; SAD and 2 completed MAD cohorts
  serious AEs, discontinuations due to AEs, dose-limiting toxicities: no serious AEs, discontinuations due to AEs, or dose-limiting toxicities
[4]; single oral dose 30-2500 mg
  maximum tolerated dose: not reached
[5]
  role of CYP3A4 in metabolism of the compound: major route of the oxidative metabolism
[5]; pre-clinical data
  CYP3A4 induction: moderate inducer
[6]; both, human, 14 days
  dose at which gastrointestinal AEs occurred: 700 mg q12h
  severity of treatment-related AEs: mild or moderate (only 1 grade 3 event)
  subjects with related headache: 14%
  subjects with related nausea: 14%
  subjects with treatment related ≥1 AEs: 31%
  subjects with ≥1 AE: 44%
[6]
  number of discontinuations: four
[7]
  highest well-tolerated dose: 360 mg q12h
[8]; 15-700 mg q12h, 120 mg q24h
  plasma exposure: dose dependent
[8]; MAD cohorts 1 and 2 (120 mg BID, 360 mg BID)
  pharmacokinetic parameter values Day 14 compared with Day 1: lower on Day 14
PK-R [9]; 12 hours following the first dose
  effect on ATP levels after first dose: minimal
PK-R [9]; Days 8-14, MAD cohorts 1 and 2
  ATP levels in the blood: substantial increases
PK-R [9]; after final dose, MAD cohorts 1 and 2
  2,3-DPG levels: decreases in 2,3-DPG levels
PK-R [9]; after the last dose, MAD cohorts 1 and 2
  time ATP levels remained elevated: ≥ 72 h
PK-R [9]; in vivo
  dose at which decrease in 2,3-DPG and increase in ATP plateau: 360 mg q12h
PK-R [9]; of dosing
  time for 2,3-DPG decrease to reach full extent: ≤ 7 days
  time for ATP increase to reach full extent: ≤ 10 days
